According to US8993606B2, “Oral formulations for treating metal overload” (FerroKin BioSciences, Inc., priority 2011, dated 2015):

Tested on: patients with transfusional iron overload
Assay: Example 11: efficacy study, R2 liver iron concentration per FerriScan MRI (text: mg/g liver dw)
Assay type: in vivo, human
Experimental: The goal of this experiment was to: 1. evaluate the safety and tolerability based on clinical assessments of two doses (16 and 32 mg/kg/d) of Compound 1 when administered daily for 24 weeks to patients with transfusional iron overload; 2. identify a differential response between dose groups in liver iron concentration determined by magnetic resonance imaging (MRI) after 24 weeks of dosing; and 3. assess the safety and efficacy activity of Compound 1 when administered daily for up to 96 weeks.
This experiment is an open-label, randomized study of two dose levels (16 and 32 mg/kg/d) of Compound 1 administered once daily for 24 weeks to eligible patients with transfusional iron overload requiring chelation therapy, with a dosing extension of 72 additional weeks.
Patients were assigned to one of two strate: “high” or “low” transfusion burden based on the average iron intake of the six transfusion sessions. Patients within each transfusion burden groups were randomized to one of two Compound 1 treatment arms: 16 mg/kg/d (16 mpk) or 32 mg/kg/d (32 mpk). The stratification followed by randomization to treatment arms helps to ensure an equal distribution of patients with “high” and “low” transfusion burdens to the high or low dose of Compound 1. Each treatment arm received one dose of Compound 1 daily for 24 weeks.
At the conclusion of the 24 week dosing period, patients who qualify and consent to continue treatment continued for an additional 72 weeks of Compound 1 dosing.
The inclusion of 25 patients in each treatment group provided a statistical power of 0.80 to detect, within 6 months, an LIC difference (normalized for initial LIC) of 3 mg/g dry weight between the two dose groups as determined by MRI. Baseline characteristics between dose groups were compared using Fisher extract test or Wilcoxon rank sum test as appropriate. The change in baseline to week 12, 24, and 72 values for all pharmacodynamics parameters were analyzed by an ANCOVA model with main effect for treatment group with baselines value for the corresponding parameters and transfusion burdon (iron input) during the study and baseline liver iron concentration as covariates comparing the two active treatment groups. T2* values were natural log transformed and summarized as the geometric mean (the antilog of the mean of the log data) plus or minus the co-efficient of variation (CV) defined as square root of eMSE where MSE is defined as the mean square error and subject to ANCOVA setting the p value as the threshold for statistical significance at 0.05 (confidence level of 95%).
Conducted was a multicenter, randomized, open-label study of adult subjects with documented transfusional iron overload in need of chelation therapy. Transfusional iron overload was defined as LIC by R2 (FerriScan®) magnetic resonance imaging (MRI)≧3.5 mg/g liver dw or serum ferritin>500 ng/mL. Subjects received investigational product for 24 weeks with an extension of 72 weeks for the evaluation of long-term safety and efficacy. The 24-week and 48-week pharmacodynamics results are described in this section. A total of 51 subjects enrolled and 49 completed the initial 24-week treatment period.

[1] = randomized to 16 mg/kg/d, dose adjustments after week 24
[2] = randomized to 32 mg/kg/d, dose adjustments after week 24

## COCCOCCOCCOc1cccc(C2=N[C@@](C)(C(=O)O)CS2)c1O [Compound 1, (S)-4,5-Dihydro-2-[2-hydroxy-3-(3,6,9-trioxadecyloxy)phenyl]-4-methyl-4-thiazolecarboxylate magnesium hydroxide]
16 mg/kg/d
  R2 LIC Change from Baseline to Week 12, Mean (SD): 2.68 (4.050)
  R2 LIC Change from Baseline to Week 12, Median: 0.90
  R2 LIC Change from Baseline to Week 24, Mean (SD): 3.08 (5.552)
  R2 LIC Change from Baseline to Week 24, Median: 1.10
  R2 LIC Week 12, Mean (SD): 15.90 (9.446)
  R2 LIC Week 12, Median: 11.70
  R2 LIC Week 24, Mean (SD): 16.31 (10.570)
  R2 LIC Week 24, Median: 11.50
32 mg/kg/d
  R2 LIC Change from Baseline to Week 12, Mean (SD): −0.22 (2.827)
  R2 LIC Change from Baseline to Week 12, Median: 0.10
  R2 LIC Change from Baseline to Week 24, Mean (SD): −0.27 (4.950)
  R2 LIC Change from Baseline to Week 24, Median: 0.20
  R2 LIC Week 12, Mean (SD): 13.59 (8.684)
  R2 LIC Week 12, Median: 10.70
  R2 LIC Week 24, Mean (SD): 13.25 (8.510)
  R2 LIC Week 24, Median: 9.30
16 mpk
  LIC from baseline to Weeks 12 and 24: statistically significant increase
32 mpk
  LIC from baseline at the first 24 weeks: remained relatively unchanged
Total (both dose groups)
  R2 LIC Change from Baseline to Week 12, Mean (SD): 1.20 (3.740)
  R2 LIC Change from Baseline to Week 12, Median: 0.70
  R2 LIC Change from Baseline to Week 24, Mean (SD): 1.37 (5.467)
  R2 LIC Change from Baseline to Week 24, Median: 0.50
  R2 LIC Change from Baseline to Week 48, Mean (SD): −0.63 (3.632)
  R2 LIC Change from Baseline to Week 48, Median: −0.20
  R2 LIC Change from Baseline to Week 72, Mean (SD): −0.69 (4.975)
  R2 LIC Change from Baseline to Week 72, Median: −0.80
  R2 LIC Week 12, Mean (SD): 14.72 (9.046)
  R2 LIC Week 12, Median: 11.10
  R2 LIC Week 24, Mean (SD): 14.75 (9.599)
  R2 LIC Week 24, Median: 11.00
  R2 LIC Week 48, Mean (SD): 11.74 (7.813)
  R2 LIC Week 48, Median: 8.80
  R2 LIC Week 72, Mean (SD): 11.31 (7.904)
  R2 LIC Week 72, Median: 8.70
Week 48, 19 subjects randomized to 16 mg/kg/day
  mean change from baseline LIC: 0.1 mg/g
Week 48, 20 subjects originally randomized to 32 mg/kg/day
  mean change from baseline LIC: -1.3 mg/g
At 24 weeks, p<0.03
  difference in the mean change from baseline between treatment groups: 3.4 mg/g
Between 16 and 32 mpk, first 24-weeks
  dose-response in iron chelating capacity: clear dose-response
Doses of 32 mpk and greater
  LIC from Week 24: reduction in LIC
High dose group (32 mg/kg/day)
  subjects with lower LIC at 24 weeks compared to Baseline: 11 of 25
High dose group (32 mg/kg/day), 24 weeks
  mean change in LIC: −0.3 mg/g liver (dw)
Low dose group (16 mg/kg/day)
  subjects with lower LIC at 24 weeks compared with Baseline: 7 of 24
Low dose group (16 mg/kg/day), 24 weeks
  mean change in LIC (net gain): 3.1 mg/g liver (dw)
[1]
  R2 LIC Change from Baseline to Week 48, Mean (SD): 0.09 (4.015)
  R2 LIC Change from Baseline to Week 48, Median: 0.00
  R2 LIC Change from Baseline to Week 72, Mean (SD): 0.52 (3.654)
  R2 LIC Change from Baseline to Week 72, Median: 0.50
  R2 LIC Week 48, Mean (SD): 11.68 (6.369)
  R2 LIC Week 48, Median: 9.30
  R2 LIC Week 72, Mean (SD): 10.74 (6.373)
  R2 LIC Week 72, Median: 9.40
[2]
  R2 LIC Change from Baseline to Week 48, Mean (SD): −1.32 (3.177)
  R2 LIC Change from Baseline to Week 48, Median: −0.90
  R2 LIC Change from Baseline to Week 72, Mean (SD): −1.83 (5.853)
  R2 LIC Change from Baseline to Week 72, Median: −1.80
  R2 LIC Week 48, Mean (SD): 11.81 (9.145)
  R2 LIC Week 48, Median: 7.70
  R2 LIC Week 72, Mean (SD): 11.84 (9.307)
  R2 LIC Week 72, Median: 8.70
